Patent EP0019589A1, “Tripeptide derivatives and their use in a process for determining enzymes” (Pentapharm A.G., priority 1979, dated 1980)
Non-standard residues stand in square brackets, D forms with d. Residues, ends and D or L forms follow the SMILES beside them. *: point of attachment. Cha = N[C@@H](CC1CCCCC1)C(=O)O; dChg = N[C@@H](C(=O)O)C1CCCCC1; dPhg = N[C@@H](C(=O)O)c1ccccc1; pNA = O=[N+]([O-])c1ccc(N*)cc1; Chg = N[C@H](C(=O)O)C1CCCCC1; Phg = N[C@H](C(=O)O)c1ccccc1; Pip = O=C(O)[C@@H]1CCCCN1

Experiments:
Type in all cases: biochemical
[1] = target: T1, Urinkallikrein (Homo sapiens, UniProt P06870); experiment: Cleavage of chromogenic substrate by urinary kallikrein in human urine; conditions: 1 ml human urine (pooled morning urine of healthy persons), per min; Substratkonzentration 2 x 10^-4 molar
T1 construct: 1 ml Urin und 1 ml TRIS-Imidazol-Puffer mit pH 7,9; from tissue; host or cells: human urine
T1 sequence (P06870 25-262): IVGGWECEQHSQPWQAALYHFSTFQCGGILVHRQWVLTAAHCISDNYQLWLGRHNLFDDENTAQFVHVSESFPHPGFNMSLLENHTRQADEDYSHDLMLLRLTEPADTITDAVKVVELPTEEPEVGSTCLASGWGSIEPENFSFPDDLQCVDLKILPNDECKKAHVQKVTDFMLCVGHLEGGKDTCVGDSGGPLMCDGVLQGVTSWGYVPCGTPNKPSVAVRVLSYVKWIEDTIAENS
Method: 1. Bestimmung von Urinkallikrein.
1 ml Urin und 1 ml TRIS-Imidazol-Puffer mit pH 7,9 und Ionenstärke 1,0 werden 5 Min. bei 37°C inkubiert undcänn zentrifugiert, um Sedimente zu entfernen.
In einer-Plastikküvette werden 1,4 ml dest. H20 von 37°C und 0,4 ml des Zentrifugats gut gemischt. Zu dieser Mischung gibt man 0,2 ml einer 2 x 10^-3 molaren wässrigen Substratlösung und durchmischt die Komponenten schnell. Dieses Gemisch wird genau 15 Min. bei 37°C inkubiert. Dann wird dem Reaktionsgemisch 0,2 ml Eisessig zugemischt, um die Enzymreaktion zu unterbrechen. Zur Farbmessung verwendet man eine Vergleichsprobe (Blindprobe), die aus den gleichen Komponenten zusammengesetzt ist, wobei jedoch der Eisessig vor Zugabe des Substrates zugesetzt wird, um die Enzymreaktion zu verhindern. Dann wird bei 405 nm photometrisch oder spektrophotometrisch die Menge der gebildeten farbigen Verbindung RNH 2 aus der Differenz zwischen der Blindprobe und der zu bestimmenden Probe ermittelt. Aus dem ermittelten Wert wird die Urinkallikreinaktivität im Urin nach der folgenden Formel berechnet: [formula] • Δ OD = Zunahme der optischen Dichte bei 405 nm während 15 Min. • V = Totalvolumen des Bestimmungsansatzes = 2,2 ml • 1000 = Umrechnungsfaktor zur Umwandlung von U in mU • F = Verdünnungsfaktor des Urins (2) • v = Volumen der Probe = 0,4 ml • ε = Extinktionskoeffizient dividiert durch 1000 = 10,4
Bei der oben beschriebenen Bestimmungsmethode misst man somit die Summe der Aktivitäten von Urinkallikrein und Urokinase. Um die genaue Urinkallikreinaktivität zu erhalten, muss man die Urokinaseaktivität abziehen, welche dadurch bestimmt werden kann, dass man in einem Vergleichsversuch durch Zugabe von 0,075 Einheiten Trypsininhibitor (Trypsininhibitor aus Rinderlunge) pro ml Puffer die Urinkallikreinaktivität vollständig hemmt und nur die Urokinaseaktivität misst.
(§1) Bei der Messung des durch die enzymatische Hydrolyse des Substrates gebildeten Spaltproduktes RrNH2 geht man von der Voraussetzung aus, dass das Spaltprodukt ein UV-Spektrum besitzt, das von demjenigen des Substrates verschieden und in Richtung höherer Wellenlängen verschoben ist. Die Absorption des Substrates bei 405 nm ist praktisch Null. p-Nitroanilin als Spaltprodukt weist ein Absorptionsmaximum bei 380 nm und einen molaren Extinktionskoeffizienten von 13'200 auf. Bei 405 nm ist der Extinktionskoeffizient nur wenig niedriger, d.h. […] Der Grad der enzymatischen Hydrolyse des Substrates, welcher der Menge des abgespaltenen p-Nitroanilins proportional ist, lässt sich durch spektrophotometrische Messung bei 405 nm bestimmen. Auch bei Anwesenheit eines Ueberschusses an Substrat wird die Messung bei 405 nm nicht gestört.
(§2) Bei den Substraten, die als chromogene Gruppe eine 2-Naphthylamino-, 4-Methoxy-2-naphthylamino-, 4-Methyl-cumaryl-(7)-amino- oder 1,3-Di(methoxycarbonyl)-phenyl-(5)-amino-Gruppe enthalten, wird die Menge des Spaltproduktes R-NH2 durch Fluoreszenzspektrophotometrie gemessen. In einem aus Enzym, Puffer und Substrat bestehenden Testsystem misst man kontinuierlich das energieärmere emittierte Licht bei 400-470 nm, nachdem man das gebildete fluoreszierende Spaltprodukt mit energiereicherem Licht erregt hat. Die pro Zeiteinheit gebildete Menge Spaltprodukt ist ein Mass für die vorhandene Enzymaktivität. 1 µMol Spaltprodukt pro Minute entspricht definitionsgemäss 1 Enzym-Einheit, bezogen auf ein gegebenes Substrat.

[2] = target: T2, Humanthrombin (Homo sapiens, UniProt P00734); experiment: Cleavage of chromogenic substrate by human NIH thrombin; conditions: 1 NIH-Einheit human thrombin, per min; Substratkonzentration 2 x 10^-4 molar
T2 construct: Humanplasmin und hu-manem NIH-Thrombin
Excerpt: as §1, §2

[3] = target: T3, Submandibularis-Kallikrein (Homo sapiens, UniProt P06870); experiment: Cleavage of chromogenic substrate by submandibular (glandular) kallikrein in human sputum; conditions: 1 ml human sputum, per min; Substratkonzentration 2 x 10^-4 molar
T3 construct: Man mischt 0,5 ml Sputum mit 2 ml TRIS-Imidazol-Puffer; from tissue; host or cells: human sputum
T3 sequence (P06870 25-262): as above
Method: 2. Bestimmung des Glandulärkallikreins im Sputum: • Man mischt 0,5 ml Sputum mit 2 ml TRIS-Imidazol-Puffer (Ionenstärke 1,0) und präinkubiert die Mischung 5 Min. bei 37°C. Das Inkubat wird zentrifugiert. In eine Testküvette wird 1,5 ml dest. H2O von 37°C vorgelegt und mit 0,25 ml des Zentrifugats versetzt. Die Komponenten werden gut gemischt. Dann wird 0,2 ml 2 x 10-^3 molare wässrige Substratlösung zugesetzt und gemischt. Dann wird bei 405 nm die Extinktions- änderung kontinuierlich mittels eines Schreibers während 5-10 Min. verfolgt. Aus dem ermittelten Δ OD pro Min. wird mittels der nachstehenden Formel die Kallikreinaktivität pro ml Sputum in mU errechnet: [formula] • F = 5 • V = 1,95 • v = 0,25 • 1 U (Einheit) = Enzymmenge, die während 1 Min. 1 µMol Substrat unter optimalen oder sonst festgelegten Bedingungen in Bezug auf pH, Ionenstärke, Temperatur und Substratkonzentration zu spalten vermag
as §1, with “gestört. […]” for “gestört.”

[4] = target: T4, Humanplasmin (Homo sapiens, UniProt P00747); experiment: Cleavage of chromogenic substrate by human plasmin; conditions: 1 CU-Einheit human plasmin, per min; Substratkonzentration 2 x 10^-4 molar
T4 construct: da bei der Aktivierung aus 1 Molekül Plasminogen 1 Molekül Plasmin entsteht
T4 sequence (P00747 581-810 limits assumed): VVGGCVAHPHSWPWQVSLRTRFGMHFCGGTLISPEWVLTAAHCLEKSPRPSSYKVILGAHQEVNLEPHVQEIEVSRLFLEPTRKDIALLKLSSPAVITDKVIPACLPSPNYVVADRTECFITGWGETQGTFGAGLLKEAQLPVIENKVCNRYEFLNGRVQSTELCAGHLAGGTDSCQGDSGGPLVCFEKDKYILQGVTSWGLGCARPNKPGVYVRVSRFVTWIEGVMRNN
T4 sequence (P00747 97-580 partner limits assumed): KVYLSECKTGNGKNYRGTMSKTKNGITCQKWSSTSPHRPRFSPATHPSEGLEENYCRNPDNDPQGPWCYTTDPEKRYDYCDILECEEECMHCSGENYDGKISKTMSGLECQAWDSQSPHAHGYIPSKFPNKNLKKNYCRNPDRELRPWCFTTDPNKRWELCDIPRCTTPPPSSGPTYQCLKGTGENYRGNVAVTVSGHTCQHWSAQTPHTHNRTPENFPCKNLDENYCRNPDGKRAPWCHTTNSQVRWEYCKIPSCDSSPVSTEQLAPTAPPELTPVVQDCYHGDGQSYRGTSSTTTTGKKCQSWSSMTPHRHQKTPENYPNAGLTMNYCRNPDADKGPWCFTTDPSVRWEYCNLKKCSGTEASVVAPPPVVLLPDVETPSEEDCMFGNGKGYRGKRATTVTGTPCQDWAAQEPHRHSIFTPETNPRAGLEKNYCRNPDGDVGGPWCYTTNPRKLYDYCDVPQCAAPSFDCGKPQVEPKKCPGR
Method: 3. Bestimmung von Plasmin:
Man mischt 1,7 ml TRIS-Imidazol-Puffer (pH 7,5, Ionenstärke 0,2) bei 37°C mit 0,1 ml einer Lösung von Plasmin in 25%igem Glycerin und inkubiert die Mischung während 1 Min. bei 37°C. Dann gibt man der Mischung 0,2 ml einer wässrigen 2 x 10^-3 molaren Substxatlösung von 37°C zu und durchmischt das Ganze schnell. Man ermittelt dann kontinuierlich die pro Zeiteinheit aus dem Substrat freigesetzte Menge des Spaltproduktes R-NH2. Aus dem pro Min. ermittelten Wert berechnet man dann die Plasminaktivität pro ml Probe in mU nach der folgenden Formel: [formula] • ΔE = pro Min. freigesetzte Menge des Spaltproduktes • V = Totalvolumen des Testansatzes • v = Volumen der Probe • = Extinktionskoeffizient dividiert durch 1000
as §1, §2

Compound | Menge des durch 1 ml Humanurin pro Min. freigesetzten Spaltproduktes R-NH2 in Nanomol (Urinkallikrein) [1] | Menge des durch 1 NIH-Einheit Thrombin pro Min. freigesetzten Spaltproduktes R-NH2 in Nanomol (Humanthrombin) [2] | Menge des durch 1 ml Humansputum pro Min. freigesetzten Spaltproduktes R-NH2 in Nanomol (Submandibularis-Kallikrein) [3] | Menge des durch 1 CU-Einheit Humanplasmin pro Min. freigesetzten Spaltproduktes R-NH2 in Nanomol (Humanplasmin) [4]
N=C(N)NCCC[C@H](NC(=O)[C@@H](NC(=O)[C@H](N)Cc1ccccc1)C1CCCCC1)C(=O)Nc1ccc([N+](=O)[O-])cc1 [Beispiel 61, 2HBr.H-D-Phe-CHG-Arg-pNA] (H-[dF]-[Chg]-Arg-pNA) | 0,33 Nanomol | 3,7 Nanomol | 4,9 Nanomol | 60 Nanomol
CC[C@@H](C)[C@@H](N)C(=O)N[C@@H](CC1CCCCC1)C(=O)N[C@@H](CCCNC(=N)N)C(=O)Nc1ccc([N+](=O)[O-])cc1 [Beispiel 13, 2HBr.H-D-Ile-CHA-Arg-pNA] (H-[dI]-[Cha]-Arg-pNA) | 2,67 Nanomol | 7,44 Nanomol | 36,6 Nanomol | 446 Nanomol
2HBr.H-D-CHT-Pro-Arg-pNA [Beispiel 23] | 1,20 Nanomol | 45,8 Nanomol | 21,4 Nanomol | 690 Nanomol
N=C(N)NCCC[C@H](NC(=O)[C@@H]1CCCCN1C(=O)[C@H](N)C1CCCCC1)C(=O)Nc1ccc([N+](=O)[O-])cc1 [Beispiel 65, 2HBr.H-D-CHG-Pip-Arg-pNA] (H-[dChg]-[Pip]-Arg-pNA) | 1,92 Nanomol | 142,5 Nanomol | 14,2 Nanomol | 259 Nanomol
N=C(N)NCCC[C@H](NC(=O)[C@H](Cc1ccc(O)cc1)NC(=O)[C@H](N)c1ccccc1)C(=O)Nc1ccc([N+](=O)[O-])cc1 [Beispiel 47, 2HBr.H-D-Ph'Gly-Tyr-Arg-pNA] (H-[dPhg]-Tyr-Arg-pNA) | 0,19 Nanomol | 1,0 Nanomol | 7,0 Nanomol | 818 Nanomol
N=C(N)NCCC[C@H](NC(=O)[C@@H](NC(=O)[C@H](N)C1CCCCC1)c1ccccc1)C(=O)Nc1ccc([N+](=O)[O-])cc1 [Beispiel 58, 2HBr.H-D-CHG-Ph'Gly-Arg-pNA] (H-[dChg]-[Phg]-Arg-pNA) | 0,38 Nanomol | 63,7 Nanomol | 22,1 Nanomol | 446 Nanomol
CC(C)C[C@H](NC(=O)[C@H](N)C1CCCCC1)C(=O)N[C@@H](CCCNC(=N)N)C(=O)Nc1ccc([N+](=O)[O-])cc1 [Beispiel 11, 2HBr.H-D-CHG-Leu-Arg-pNA] (H-[dChg]-Leu-Arg-pNA) | 0,60 Nanomol | 33,9 Nanomol | 11,6 Nanomol | 381 Nanomol
N=C(N)NCCC[C@H](NC(=O)[C@H](Cc1ccccc1)NC(=O)[C@H](N)C1CCCCC1)C(=O)Nc1ccc([N+](=O)[O-])cc1 [Beispiel 16, 2HBr.H-D-CHG-Phe-Arg-pNA] (H-[dChg]-Phe-Arg-pNA) | 3,31 Nanomol | 17,1 Nanomol | 32,2 Nanomol | 1200 Nanomol
CC(C)C[C@H](NC(=O)[C@H](N)C1CCCCC1)C(=O)N[C@@H](CCCCN)C(=O)Nc1ccc([N+](=O)[O-])cc1 [Beispiel 21, 2HBr.H-D-CHG-Leu-Lys-pNA] (H-[dChg]-Leu-Lys-pNA) | 0,40 Nanomol | 1,20 Nanomol | 2,2 Nanomol | 460 Nanomol
C[C@@H](N)C(=O)N[C@@H](CC1CCCCC1)C(=O)N[C@@H](CCCNC(=N)N)C(=O)Nc1ccc([N+](=O)[O-])cc1 [Beispiel 40, 2HBr.H-D-Ala-CHA-Arg-pNA] (H-[dA]-[Cha]-Arg-pNA) | 1,73 Nanomol | 1,5 Nanomol | 22,4 Nanomol | 433 Nanomol
N=C(N)NCCC[C@H](NC(=O)[C@@H](NC(=O)[C@H]1CCCN1)C1CCCCC1)C(=O)Nc1ccc([N+](=O)[O-])cc1 [Beispiel 24, 2HBr.H-D-Pro-CHG-Arg-pNA] (H-[dP]-[Chg]-Arg-pNA) | 1,87 Nanomol | 0,29 Nanomol | 5,7 Nanomol | 10 Nanomol
